pIC50, pKd: −log10 of the molar value. The source made the active and inactive calls. The calls are words filed in the database; no cut-off is given here. Peptide text beside a SMILES is read from it.
Legend:
HepG2 [1] = assay: Antiproliferative activity against human HepG2 cells under dark condition by CCK8 assay; format: functional, cell-based
HepG2 [2] = assay: Antiproliferative activity against human HepG2 cells under 10 J/cm2 light irradiation at 660 nm by CCK8 assay; format: functional, cell-based; details: HepG2, light or radiation study
Huh-7 [3] = assay: Antiproliferative activity against human Huh-7 cells under dark condition by CCK8 assay; format: functional, cell-based
Huh-7 [4] = assay: Antiproliferative activity against human Huh-7 cells under 10 J/cm2 light irradiation at 660 nm by CCK8 assay; format: functional, cell-based; details: Huh-7, light or radiation study
MCF7 [5] = assay: Antiproliferative activity against human MCF7 cells under dark condition by CCK8 assay; format: functional, cell-based
MCF7 [6] = assay: Antiproliferative activity against human MCF7 cells under 10 J/cm2 light irradiation at 660 nm by CCK8 assay; format: functional, cell-based; details: MCF7, light or radiation study
HeLa [7] = assay: Antiproliferative activity against human HeLa cells under dark condition by CCK8 assay; format: functional, cell-based
HeLa [8] = assay: Antiproliferative activity against human HeLa cells under 10 J/cm2 light irradiation at 660 nm by CCK8 assay; format: functional, cell-based; details: light or radiation study
[9] = Antiproliferative activity against human HUVEC cells under dark condition by CCK8 assay; format: toxicity, cell-based
[10] = Antiproliferative activity against human HUVEC cells under 10 J/cm2 light irradiation at 660 nm by CCK8 assay; format: toxicity, cell-based
[11] = Partition coefficient, logP of compound; format: physicochemical; details: octanol/water
[12] = Photostability of compound under 250 mW/cm2 light irradiation at 660 nm incubated for 10 mins by UV spectrophotometry; format: physicochemical; details: 0.66 µM
[13] = Aggregation property of compound in PBS; format: physicochemical; details: buffer
chymotrypsin = chymotrypsin (Homo sapiens, UniProt P17538+P40313+Q6GPI1+Q99895); assay: Stability of compound assessed as chymotrypsin (unknown origin)-mediated compound degradation in PBS at pH 7.4 by measuring half life; format: ADME, protein assay
Glypican-3 = Glypican-3 (Homo sapiens, UniProt P51654); assay: Binding affinity to GPC3 (unknown origin) assessed as dissociation constant by fluorescence polarization assay
Chain of Glypican-3 (P51654 25-358 limits assumed): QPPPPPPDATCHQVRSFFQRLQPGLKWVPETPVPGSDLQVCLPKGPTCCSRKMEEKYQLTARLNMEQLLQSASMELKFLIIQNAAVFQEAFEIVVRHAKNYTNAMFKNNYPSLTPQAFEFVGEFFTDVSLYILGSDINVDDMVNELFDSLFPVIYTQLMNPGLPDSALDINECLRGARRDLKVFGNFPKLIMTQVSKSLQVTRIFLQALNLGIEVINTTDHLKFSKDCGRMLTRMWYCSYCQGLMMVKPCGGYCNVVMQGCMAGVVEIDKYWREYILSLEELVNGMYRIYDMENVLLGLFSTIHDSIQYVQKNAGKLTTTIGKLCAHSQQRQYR
Chain of Glypican-3 (P51654 359-554 limits assumed): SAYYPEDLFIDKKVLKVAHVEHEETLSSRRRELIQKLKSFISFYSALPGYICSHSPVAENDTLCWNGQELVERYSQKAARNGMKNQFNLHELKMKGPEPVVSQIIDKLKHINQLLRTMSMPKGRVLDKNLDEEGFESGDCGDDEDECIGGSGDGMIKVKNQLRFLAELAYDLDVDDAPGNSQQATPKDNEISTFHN

[14] = […] assessed as decrease in fluorescence intensity of DMA; format: functional
[15] = Drug uptake in human MCF7 cells incubated for 2 hrs by fluorescence based assay; format: ADME, cell-based; details: mcf7, 2 h
[16] = Drug uptake in human HUVEC cells at 500 nM incubated for 0.5 hrs by flow cytometry; format: ADME, cell-based; details: 0.5 µM
HepG2 [17] = assay: Induction of ROS generation in human HepG2 cells at 10 uM incubated for 24 hrs by DCFH-DA probe based flow cytometry; format: functional, cell-based
HepG2 [18] = assay: Induction of ROS generation in human HepG2 cells at 10 uM preincubated for 24 hrs followed by DCFH-DA probe addition and further incubated under dark condition for 20 mins prior and 20 mins post- light irradiation of 10 J/cm2 at 660 nm by flow cytometry; format: functional, cell-based; details: time 24.66 hrs
[19] = Drug distribution in tumor of BALB/C nude mouse model xenografted with human HepG2 cells at 1 to 2 uM/kg, iv measured for 1 to 4 hrs by fluorescence imaging analysis; format: ADME, organism-based, Neoplasm; details: in vivo, dose lower 1 µM/Kg, time lower 1 hrs, dose upper 2 µM/Kg, time upper 4 hrs
[20] = Drug distribution in BALB/C nude mouse model xenografted with human HepG2 cells at 1 to 2 uM/kg, iv measured after 1 hr by fluorescence imaging analysis; format: ADME, organism-based; details: in vivo, dose 1-2 µM/Kg
[21] = Drug distribution in tumor of BALB/C nude mouse model xenografted with human HepG2 cells at 1 to 2 uM/kg, iv measured after 2 hrs by fluorescence imaging analysis; format: ADME, organism-based, Neoplasm; details: in vivo, dose 1-2 µM/Kg
HepG2 [22] = assay: Antitumor activity in human HepG2 cells xenografted in BALB/C nude mouse model assessed as tumor growth inhibition at 1 uM/kg, iv administered every two days for 21 days along with 250 mW/cm2 light irradiation at 660 nm for 10 mins at 1 hr post-compound administration relative to control; format: functional; details: time 505.166 hrs, 505.17 h, at 1 µmol/kg
[23] = Toxicity in BALB/C nude mouse model xenografted with human HepG2 cells assessed as drug tolerance at 1 uM/kg, iv administered every two days for 21 days along with 250 mW/cm2 light irradiation at 660 nm for 10 mins at 1 hr post-compound administration; format: organism-based; details: in vivo, 505.17 h, time 505.166 hrs
[24] = Toxicity in BALB/C nude mouse model xenografted with human HepG2 cells assessed as body weight loss at 1 uM/kg, iv administered every two days for 21 days along with 250 mW/cm2 light irradiation at 660 nm for 10 mins at 1 hr post-compound administration; format: organism-based; details: in vivo, 505.17 h, time 505.166 hrs
[25] = Toxicity in BALB/C nude mouse model xenografted with human HepG2 cells assessed as change in heart weight at 1 uM/kg, iv administered every two days for 21 days along with 250 mW/cm2 light irradiation at 660 nm for 10 mins at 1 hr post-compound administration; format: organism-based; details: in vivo, 505.17 h, time 505.166 hrs
[26] = Toxicity in BALB/C nude mouse model xenografted with human HepG2 cells assessed as change in liver weight at 1 uM/kg, iv administered every two days for 21 days along with 250 mW/cm2 light irradiation at 660 nm for 10 mins at 1 hr post-compound administration; format: organism-based; details: in vivo, 505.17 h, time 505.166 hrs
[27] = Toxicity in BALB/C nude mouse model xenografted with human HepG2 cells assessed as change in spleen weight at 1 uM/kg, iv administered every two days for 21 days along with 250 mW/cm2 light irradiation at 660 nm for 10 mins at 1 hr post-compound administration; format: organism-based; details: in vivo, 505.17 h, time 505.166 hrs
[28] = Toxicity in BALB/C nude mouse model xenografted with human HepG2 cells assessed as change in lung weight at 1 uM/kg, iv administered every two days for 21 days along with 250 mW/cm2 light irradiation at 660 nm for 10 mins at 1 hr post-compound administration; format: organism-based; details: in vivo, 505.17 h, time 505.166 hrs
[29] = Toxicity in BALB/C nude mouse model xenografted with human HepG2 cells assessed as change in kidney weight at 1 uM/kg, iv administered every two days for 21 days along with 250 mW/cm2 light irradiation at 660 nm for 10 mins at 1 hr post-compound administration; format: organism-based; details: in vivo, 505.17 h, time 505.166 hrs
[30] = Toxicity in BALB/C nude mouse model xenografted with human HepG2 cells assessed as damage in heart at 1 uM/kg, iv administered every two days for 21 days along with 250 mW/cm2 light irradiation at 660 nm for 10 mins at 1 hr post-compound administration by H and E staining based analysis; format: organism-based; details: in vivo, 505.17 h, time 505.166 hrs
[31] = Toxicity in BALB/C nude mouse model xenografted with human HepG2 cells assessed as damage in liver at 1 uM/kg, iv administered every two days for 21 days along with 250 mW/cm2 light irradiation at 660 nm for 10 mins at 1 hr post-compound administration by H and E staining based analysis; format: organism-based; details: in vivo, 505.17 h, time 505.166 hrs
[32] = Toxicity in BALB/C nude mouse model xenografted with human HepG2 cells assessed as damage in spleen at 1 uM/kg, iv administered every two days for 21 days along with 250 mW/cm2 light irradiation at 660 nm for 10 mins at 1 hr post-compound administration by H and E staining based analysis; format: organism-based; details: in vivo, 505.17 h, time 505.166 hrs
[33] = Toxicity in BALB/C nude mouse model xenografted with human HepG2 cells assessed as damage in lung at 1 uM/kg, iv administered every two days for 21 days along with 250 mW/cm2 light irradiation at 660 nm for 10 mins at 1 hr post-compound administration by H and E staining based analysis; format: organism-based; details: in vivo, 505.17 h, time 505.166 hrs
[34] = Toxicity in BALB/C nude mouse model xenografted with human HepG2 cells assessed as damage in kidney at 1 uM/kg, iv administered every two days for 21 days along with 250 mW/cm2 light irradiation at 660 nm for 10 mins at 1 hr post-compound administration by H and E staining based analysis; format: organism-based; details: in vivo, 505.17 h, time 505.166 hrs
MCF7 [35] = assay: Antitumor activity against human MCF7 cells xenografted in BALB/C nude mouse model assessed as decrease in tumor growth at 1 uM/kg, iv administered every two days for 21 days along with 250 mW/cm2 light irradiation at 660 nm for 10 mins at 1 hr post-compound administration; format: functional, organism-based; details: time 505.166 hrs

`C=Cc1c(C)c2cc3nc(c(CC(=O)O)c4[nH]c(cc5nc(cc1[nH]2)C(C)=C5CC)c(C)c4C(=O)NCCCC(=O)N[C@@H](CCCNC(=N)N)C(=O)N[C@@H](CC(C)C)C(=O)N[C@@H](CC(N)=O)C(=O)N[C@H](C(=O)NCC(=O)NCC(=O)N[C@H](C(=O)N[C@@H](Cc1ccc(O)cc1)C(=O)N[C@@H](Cc1ccccc1)C(=O)N[C@@H](CC(C)C)C(=O)N[C@H](C(=O)N[C@H](C(=O)N[C@@H](CCCNC(=N)N)C(=O)N[C@@H](CCC(N)=O)C(=O)O)[C@@H](C)O)[C@@H](C)O)[C@@H](C)O)C(C)C)[C@@H](CCC(=O)O)[C@@H]3C` (HELM PEPTIDE1{[C=Cc1c(C)c2cc3nc(c(CC(=O)O)c4[nH]c(cc5nc(cc1[nH]2)C(C)=C5CC)c(C)c4C(=O)[*:2])[C@@H](CCC(=O)O)[C@@H]3C].[O=C(CCCN[*:1])[*:2]].R.L.N.V.G.G.T.Y.F.L.T.T.R.Q}$$$$V2.0) gave a pIC50 (HepG2 [1]) of under 4.00, a pIC50 (HepG2 [2]) of 6.51 and a pIC50 (Huh-7 [3]) of under 4.00. It also gave a pIC50 (Huh-7 [4]) of 6.60, a pIC50 (MCF7 [5]) of under 4.00 and a pIC50 (MCF7 [6]) of 6.06. For the same compound, the pIC50 (HeLa [7]) was under 4.00, the pIC50 (HeLa [8]) was 6.14 and the pIC50 [9] was under 3.70. The pIC50 [10] was 5.68, the logP [11] was 0.8 and the Stability [12] was “Stable”. For the same compound, the Activity [13] was “Active” and the half-life (chymotrypsin) was 2.4 h.

In the case of `C=Cc1c(C)c2cc3nc(c(CC(=O)O)c4[nH]c(cc5nc(cc1[nH]2)C(C)=C5CC)c(C)c4C(=O)O)[C@@H](CCC(=O)O)[C@@H]3C` [CHLORIN E6], the pIC50 (HepG2 [1]) was under 4.00, the pIC50 (HepG2 [2]) was 4.80 and the pIC50 (Huh-7 [3]) was under 4.00. For the same compound, the pIC50 (Huh-7 [4]) was 4.74, the pIC50 (MCF7 [5]) was under 4.00 and the pIC50 (MCF7 [6]) was under 5.00. For the same compound, the pIC50 (HeLa [7]) was under 4.00, the pIC50 (HeLa [8]) was under 5.00 and the pIC50 [9] was under 3.70. The pIC50 [10] was under 5.00, the pKd (Glypican-3) was under 5.00 and the Activity [13] was “Active”. For the same compound, the Activity [14] was “Active”, the Drug uptake [15] was “Active” and the Drug uptake [16] was “Active”. The Activity (HepG2 [17]) was “inactive”, the Activity (HepG2 [18]) was “Active” and the Drug uptake [19] was “Active”. For the same compound, the Drug uptake [20] was “Active”, the Drug uptake [21] was “Not Active” and the TGI (HepG2 [22]) was 71.3%. For the same compound, the Activity [23] was “Non-Toxic”, the Activity [24] was “Non-Toxic” and the Activity [25] was “Non-Toxic”. The Activity [26] was “Non-Toxic”, the Activity [27] was “Non-Toxic” and the Activity [28] was “Non-Toxic”. The Activity [29] was “Non-Toxic”, the Activity [30] was “Non-Toxic” and the Activity [31] was “Non-Toxic”. The Activity [32] was “Non-Toxic”, the Activity [33] was “Non-Toxic” and the Activity [34] was “Non-Toxic”. For the same compound, the Activity (MCF7 [35]) was “Active”.

Work on H-DHLASLWWGTEL-OH yielded a half-life (chymotrypsin) of 1.1 h.

Source: ChEMBL document CHEMBL5537154, “Smart glypican-3-targeting peptide-chlorin e6 conjugates for targeted photodynamic therapy of hepatocellular carcinoma” (Eur J Med Chem, 2024)
